The values that follow come from publication PMC7156724, “Potent BRD4 inhibitor suppresses cancer cell-macrophage interaction” (Nature Communications, 2020).

Data set [1] concerns A2780 tumor cells and TAMs. Description: Direct co-culture of pretreated A2780 cells with TAMs, Ki67/CD68 staining. It counts as cell-based, mouse. Here is the method: A2780 tumor cells were pretreated with 100 nM NHWD-870 and then directly co-cultured with TAMs (A2780:TAMs ratio as 4:1) at the density of 1 × 10^5 total cells in a 12-well. Shown are immunofluorescent staining of Ki67 and CD68 (a) and quantification of Ki67+ and CD68− or CD68+ cells (b). Scale bar is 50 μm. […] A2780 cells (pre-treated with or without 100 nM NHWD-870 for 48 h) were seeded into the top chamber (transwell size: 0.4 μm) and TAMs (Mac, 40,000 cells per 24-well) in medium containing 2% matrigel were seeded into the bottom chamber pre-coated with Matrigel. No NHWD-870 was added to the co-culture. The upper chamber without A2780 cells was used as a control. Shown are schematics of transwell co-culture experiment (c), representative pictures of TAM spheroid (d: black/white), and quantification of spheroid volumes (e). Scale bar is 50 μm. […] Data are presented as mean ± SEM from three independent experiments. g CSF1 protein levels in supernatant of 10^6 ID8, B16, A2780, SKOV3, and A375 cells treated with DMSO or 25 nM NHWD-870 for 24 h, as measured by ELISA. […] Scale bar is 20 μm. i Quantification of CSF1 staining in DMSO or 100 nM NHWD-870 treated A2780 cells. […] Shown are representative immunofluorescent staining of CSF1 (green) and CD68 (red) (j) and quantification of CSF1 staining (k). […]

Data set [2] is described as follows: Equilibrium dialysis assay, CD-1 mouse plasma. On the procedure: The concentration was calculated using the peak area ratio of analyte and internal […]
The results were calculated by the following equations:
% Unbound = 100 *FC / TC, % Bound = 100 * (1-FC / TC)
% Recovery = 100 * (FC + TC) / T0
TC = Total compound concentration as determined by the calculated concentration on the retentate side of the membrane
FC = Free compound concentration as determined by the calculated concentration on the dialysate side of the membrane […]
Equation of first order kinetics: […]
8. Equilibrium dialysis assay. Binding with plasma protein and recovery rate of NHWD-870 were performed with human, CD-1 mouse and SD rat plasma as […]
described 2. […] The concentration was […]
calculated using the peak area ratio of analyte and internal standard. The results were calculated by the following equations: % Unbound = 100 *FC / TC, % Bound = 100 * (1-FC / TC); % Recovery = 100 * (FC + TC) / T0; TC = Total compound concentration as determined by the calculated concentration on the retentate side of the membrane; FC = Free compound concentration as determined by the (1 picture or pasted object on this page, not shown here) […]
calculated concentration on the dialysate side of the membrane; T0 = To t a l compound concentration as determined before dialysis. […]
10. hERG channel assay. […]
HEK293 cell line stably
Background: In equilibrium dialysis only unbound substance equilibrates across the membrane.

For orientation: fraction unbound means free concentration divided by total concentration. Lower therefore signals extensive binding. As for `Cc1nnn(C)c1-c1cnc2c3c4cnn(C)c4ccc3n([C@H](c3ccccc3)C3CCOCC3)c2c1` [NHWD-870], the “quantification of Ki67+ and CD68+ cells” value in data set [1] (A2780 pretreated with 100 nM, direct co-culture with TAMs) was found to be 0. In data set [1] (pre-treatment of A2780 cells with 100 nM, read-out: inhibition of the proliferation rate of TAMs), the inhibition at 0.1 µM came to 83%. In data set [2] (CD-1, mouse, plasma), the fraction unbound turned out to be 0.026 and the recovery worked out at 95.2%. The “% Bound” value in data set [2] (CD-1 mouse plasma, equilibrium dialysis) was determined as 97.4%.
